“And” between values parts separate entries of the source, which are not always exact repeats. Equal entries are not always repeated. Where no end group is shown, it is not given here. TAMRA = carboxytetramethyl rhodamine on alpha-amino group of Met1
Legend:
[1] = system: Diet induced obese C57BL/6NTac male mice; assay: Acute food intake in diet induced obese mice, s.c. (Example 11); assay type: in vivo, mouse; conditions: 15 nmol/kg s.c.
Method: Diet induced obese C57BL/6NTac male mice were purchased from Taconic and continued on a high fat high sucrose diet with free access to water. One week after arrival, animals were double or single housed. […] Thirty minutes prior peptide injection, all mice were administered subcutaneously with DDP-4 inhibitor Valine-pyrrolidide (3 mg/mouse). Food intake was measured after 1, 2, 4 and 14 hours (FIG. 15A-D).

[2] = target: human GLP-1 receptor (Homo sapiens, UniProt P43220); assay: cAMP accumulation, human GLP-1 receptor; assay type: cell-based; parameters: expressed in transfected cells; host or cells: COS-7 (methods)
Method: (§1) Transient transfection of COS-7 cells was performed using calcium phosphate precipitation method. Briefly, a total of 10 ug of receptor DNA was diluted in TE-buffer ([…] Tris-HCl and 1 mM EDTA, pH 7.5) to a total of 105 ul, to which 15 ul of 2 M CaCl2) was added. The DNA-calcium co-precipitation was gently and slowly added to 120 ul 2× HEPES-buffered saline (HBS), and the transfection mixture was incubated at room temperature for 45 min. The total transfection mixture was added to the cells and incubated for 5 hours at 37° C. and 10% CO2, with the addition of 75 ul chloroquine to the growth medium. After 5 hours, the transfection medium was removed and replaced with regular growth medium. The cells were used in experiment 40-48 h after termination of the transfection procedure.
(§2) For the cAMP assay, the COS-7 cells were seeded into 96-well plates (35.000 cells/well) and washed with HBS prior to incubation with 100 ul […] isobutylmethylzanthine (IBMX) for 30 min at 37° C. […] After incubation, the medium was removed, and cells were treated according to the protocol ‘three reagent addition’ procedure for the HitHunter cAMP XS+Assay by DiscoverX, USA.

[3] = system: C57BL/6J mice; assay: Acute food intake in lean mice, s.c. (Example 10); assay type: in vivo, mouse
Method: Female C57BL/6J mice were purchased from Charles Rivers. One week before study initiation the mice were single housed with free access to food and water. […] Thirty minutes prior peptide injection, all mice were administered subcutaneously with DDP-4 inhibitor Valine-pyrrolidide (1.5 mg/mouse). Food intake was measured after 1, 2, 4 and 14 hours (FIG. 14A-D).
Results shown are combined data from five studies with an identical study design as described above. Between each study mice had at least one week washout period.

[4] = Plasma and CSF concentrations after injection into vena cava (RIA GLP-1 assay); assay type: in vivo; conditions: rat
Method: Male Sprague Dawley rats were purchased from Charles Rivers. Animals were anesthetized by hypnorm/dormicum, and restrained in a stereotactic instrument. […] Blood samples were collected prior to the injection of test compounds and straight after CSF aspiration.
The assay buffer was 100 mM Tris buffer with pH 8.5 containing 1% (wt/vol) human serum albumin, 0.01 mM valine-pyrrolidide and 500 KIE aprotinin (final concentrations). […] Plasma and CSF concentrations were measured after dilution in assay buffer. Free and bound moieties were separated with plasma-coated charcoal.

[5] = system: CaCo-2 cells; assay: Transport study: diffusion of FITCs through tight monolayer of Caco2 cells; assay type: cell-based; conditions: basal addition of FITCs together with ligand
Method: CaCo-2 cells were seeded in transwell chambers (basal) and two times TEER was measured until day 17-21 post seeding. TEER experiments were performed afte 17-21 days post seeding in wells with higher TEER as 1000 ohms (proof of a tight cell monolatyer. Caco2 cells were infected basal with mumps virus (MuV Jerryl Lynn strain, WT or SH-protein deletion virus) at a multiplicity of infection of 3. TEER was measured continuously performing CellZcope experiments.
Transport studies were performed until day 17-21 post seeding as described above for the Cellzcope experiments. Ligand or control induced changes in the tightness of the cell monolayer was measured passively by the basal addition of the fluorescence dye (FITCs) together with the ligands or controls. Increase of FITCs apical was detected by collecting samples after different time points.

[6] = target: T1, rat GLP-1 receptor (Rattus norvegicus, UniProt P32301); assay: cAMP accumulation, rat GLP-1 receptor; assay type: cell-based; conditions: rat GLP-1R-expressing HEK293 cells; read-out: EC50, intracellular cAMP accumulation
T1 construct: expressed in transfected cells; host or cells: COS-7 (methods)
T1 sequence (P32301 22-463): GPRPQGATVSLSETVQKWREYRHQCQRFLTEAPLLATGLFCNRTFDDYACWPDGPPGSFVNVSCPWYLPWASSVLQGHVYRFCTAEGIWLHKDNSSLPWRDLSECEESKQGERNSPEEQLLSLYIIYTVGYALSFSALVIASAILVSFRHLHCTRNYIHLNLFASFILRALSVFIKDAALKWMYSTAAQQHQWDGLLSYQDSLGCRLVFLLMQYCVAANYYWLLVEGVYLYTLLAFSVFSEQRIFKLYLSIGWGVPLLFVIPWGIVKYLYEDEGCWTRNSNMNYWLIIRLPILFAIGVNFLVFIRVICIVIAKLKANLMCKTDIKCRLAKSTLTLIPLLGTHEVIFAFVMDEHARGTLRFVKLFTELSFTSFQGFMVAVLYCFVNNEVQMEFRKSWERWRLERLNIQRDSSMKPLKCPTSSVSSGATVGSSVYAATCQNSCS
Method: as §1, §2

[7] = system: C57BL/6J mice; assay: Food intake of fasted C57BL/6J mice after i.p. injection (Example 8); assay type: in vivo, mouse; conditions: 200 nmol/kg i.p.
Method: Female C57BL/6J mice were purchased from Charles Rivers. […] The animals were housed in individual cages, with access to food and water, and food intake was measured 1 and 2 hours after injection.

[8] = system: choroid plexus of the WT mouse brain; assay: TAMRA labelled SH-protein binding to cryo-sections, WT mouse brain; conditions: 1 h incubation
Method: (§3) SH protein (SEQ ID NO: 74) with a N-terminal carboxytetramethyl rhodamine attached through its carboxyl-group to the N-terminal alpha amino-group of the first Methionine was used for making the TAMRA labelled SH-protein (SEQ ID NO: 129). A mixture of 5-(and-6)-Carboxytetramethylrhodamine was used.
(§4) A whole body perfusion was performed of mice and brains were dissected and frozen at −80C. Cryo-sections of mouse brains (WT and GPR125 KO mouse (Spina et al. 2021)) were generated and the TAMRA-labelled SH-protein was incubated on the cryosections at different concentrations or buffer. Afterwards the sections were mounted with mounting media containing a DAPI stain.

[9] = system: choroid plexus of the GPR125 KO mouse brain; assay: TAMRA labelled SH-protein binding to cryo-sections, GPR125 KO mouse brain; conditions: 1 h incubation
Method: as §3, §4

[10] = CSF 10 min after i.v. injection

Chain of human GLP-1 receptor (P43220 24-463): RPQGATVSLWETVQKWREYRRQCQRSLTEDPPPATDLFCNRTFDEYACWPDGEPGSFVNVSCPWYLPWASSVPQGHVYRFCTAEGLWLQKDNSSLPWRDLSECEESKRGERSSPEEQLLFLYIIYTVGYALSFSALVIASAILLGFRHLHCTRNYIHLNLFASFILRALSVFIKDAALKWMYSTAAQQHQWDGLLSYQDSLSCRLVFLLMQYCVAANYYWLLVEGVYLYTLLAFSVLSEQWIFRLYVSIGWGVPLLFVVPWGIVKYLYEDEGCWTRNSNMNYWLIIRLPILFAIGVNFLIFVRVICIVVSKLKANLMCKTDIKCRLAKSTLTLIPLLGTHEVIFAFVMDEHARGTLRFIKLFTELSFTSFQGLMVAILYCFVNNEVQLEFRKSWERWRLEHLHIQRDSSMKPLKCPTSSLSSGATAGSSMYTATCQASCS

CC[C@H](C)[C@H](NC(=O)[C@H](C)NC(=O)[C@@H]1CCCN1)C(=O)N[C@@H](CCC(N)=O)C(=O)N1CCC[C@H]1C(=O)N1CCC[C@H]1C(=O)N[C@@H](CC(C)C)C(=O)N[C@@H](Cc1ccc(O)cc1)C(=O)N[C@@H](CC(C)C)C(=O)N[C@H](C(=O)NCCOCCOCC(=O)NCCCC[C@H](NC(=O)[C@H](C)NC(=O)[C@H](C)NC(=O)[C@H](CCC(N)=O)NC(=O)CNC(=O)[C@H](CCC(=O)O)NC(=O)[C@H](CC(C)C)NC(=O)[C@H](Cc1ccc(O)cc1)NC(=O)[C@H](CO)NC(=O)[C@H](CO)NC(=O)[C@@H](NC(=O)[C@H](CC(=O)O)NC(=O)[C@H](CO)NC(=O)[C@@H](NC(=O)[C@H](Cc1ccccc1)NC(=O)[C@@H](NC(=O)CNC(=O)[C@H](CCC(=O)O)NC(=O)[C@H](C)NC(=O)[C@@H](N)Cc1c[nH]cn1)[C@@H](C)O)[C@@H](C)O)C(C)C)C(=O)N[C@@H](CCC(=O)O)C(=O)N[C@@H](Cc1ccccc1)C(=O)N[C@H](C(=O)N[C@@H](C)C(=O)N[C@@H](Cc1c[nH]c2ccccc12)C(=O)N[C@@H](CC(C)C)C(=O)N[C@H](C(=O)N[C@@H](CCCNC(=N)N)C(=O)NCC(=O)N[C@@H](CCCNC(=N)N)C(N)=O)C(C)C)[C@@H](C)CC)[C@@H](C)O [SH(2-11)-GLP-1(7-36)]
food intake compared to vehicle ([1]; after 1 hour, conjugate also vs GLP-1(7-36)): decreased food intake significantly
food intake compared to vehicle ([1]; after 2 hours, conjugate also vs GLP-1(7-36)): decreased food intake significantly
food intake compared to vehicle ([1]; after 4 hours, conjugate also vs GLP-1(7-36)): decreased food intake significantly
food intake compared to vehicle ([1]; after 14 hours): significantly decreased
EC50 [2]: 0.13 nM
food intake compared to vehicle ([3]; 15 nmol/kg s.c., after 1 hour): decreased food intake significantly
food intake compared to vehicle ([3]; 15 nmol/kg s.c., after 2 hours): decreased food intake significantly
food intake compared to vehicle ([3]; 15 nmol/kg s.c., after 4 hours): decreased food intake significantly
food intake compared to vehicle ([3]; 30 nmol/kg s.c., after 1 hour): decreased their food intake significantly
food intake compared to vehicle ([3]; 30 nmol/kg s.c., after 2 hours): decreased their food intake significantly
food intake compared to vehicle ([3]; 30 nmol/kg s.c., after 4 hours): still present
food intake compared to vehicle ([3]; 30 nmol/kg s.c., after 14 hours): significant lower food intake
level at time molar at 10 min ([4]; male, Sprague Dawley, cerebrospinal fluid (CSF), iv, CSF 10 minutes after injection into vena cava, SH(2-11)-GLP-1 500, GLP-1 50 (injection), read-out: CSF conc): 277 µM
detectable in CSF by RIA GLP-1 assay ([4]; 10 min after i.v. injection): detectable
amount detectable within the CSF, of the total injected concentration [4, 10]: approximately 55%
concentrated more in the CSF compared to GLP-1(7-36) [4, 10]: 10 times
Ratio (CSF conc to injection conc) ([4]; CSF 10 minutes after injection): 0.554
higher presence within the CSF ([4]; compared to GLP-1(7-36)): 10 fold
integrity of tight monolayer of CaCO-2 cells (uptake of fluorescent dye FITCs) [5]: decreased integrity
EC50 [6]: 0.13 nM
food intake compared to vehicle ([7]; 1 hour after injection): decreases the food intake significantly
food intake compared to vehicle ([7]; 2 hours after injection): decreases the food intake significantly

TAMRA labelled SH-protein: SH protein (SEQ ID NO: 74) with N-terminal carboxytetramethyl rhodamine on the alpha amino-group of the first Methionine ({TAMRA}-MPAIQPPLYLTFLLLILLYLIITLYVWIILTVTYKTAVRHAALYQRSFFHWSFDHSL)
concentration at which binding to the choroid plexus is still seen [8]: 2,25 UM
concentrations at which binding to the choroid plexus is seen (only at higher concentrations) [9]: 22 µM and 11 µM
